Experimental data published in US20240101589A1, “INHIBITORS OF METTL3” (Strom Therapeutics Limited, priority 2020, published 2024).

Test system: KASUMI-1 cells
Assay: Kasumi cell proliferation CTG
Assay type: cell-based
Settings: Homo sapiens, Kasumi 1, 120 h, treated for 120 hours, CellTiter-Glo
Procedure: Cell culture: KASUMI-1 cells (ACC20, Leibniz-Institut DSMZ Deutsche Sammlung von Mikroorganismen und Zellkulturen GmbH) were grown in RPMI 1640 (31870-025, Gibco) supplemented with 20% fetal bovine serum (F1524, Gibco), 1 mM sodium pyruvate (11360-039, Gibco) and 2 mM Glutamax (35050-038, Gibco) in a 5% CO2 humidified incubator at 37° C.
Cell treatment and cell growth assessment: KASUMI-1 cells were seeded in ultra-low attachment 384-well culture plate (MS-9384WZ, SBio) at a final concentration of 250 000 cells/ml (35 μL/well) and treated for 120 hours with compounds inhibiting the METTL3/14 activity (10 serial semi-log dilutions, 30 μM as top concentration). Upon treatment, Kasumi1 cells were incubated for 10 min at RT with the CellTiter-Glo reagent (G7571, Promega). Measurement of the luminescence signal was performed on a microplate reader (Ensight, PerkinElmer).

| SMILES | IC50 |
| --- | --- |
| Nc1ncnc2c1c(Br)cn2[C@@H]1O[C@H](/C=C/CCCNCC2CC(F)(F)C2)[C@@H](O)[C@H]1O [Example 4, (2R,3R,4S,5R)-2-{4-amino-5-bromo-7H-pyrrolo[2,3-d]pyrimidin-7-yl}-5-[(1E)-5-{[(3,3-difluorocyclobutyl)methyl]amino}pent-1-en-1-yl]oxolane-3,4-diol] | 4800 nM |
| Nc1ncnc2c1c(Br)cn2[C@@H]1O[C@H](/C=C/C2CC(N)C2)[C@@H](O)[C@H]1O (stereo partly drawn) [Example 17, (2R,3R,4S,5R)-2-{4-amino-5-bromo-7H-pyrrolo[2,3-d]pyrimidin-7-yl}-5-[(1E)-2-(3-aminocyclobutyl)ethenyl]oxolane-3,4-diol] | 12400 nM |

Same assay, conditions: treated for 120 hours, CellTiter-Glo

| SMILES | IC50 |
| --- | --- |
| Nc1ncnc2c1c(Br)cn2[C@@H]1O[C@H](/C=C/CCCNCc2ccccc2)[C@@H](O)[C@H]1O [Example 1, (2R,3R,4S,5R)-2-(4-amino-5-bromo-7H-pyrrolo[2,3-d]pyrimidin-7-yl)-5-((E)-5-(benzylamino)pent-1-en-1-yl)tetrahydrofuran-3,4-diol] | 4900 nM |

Target: METTL3/14 (Homo sapiens (Human), UniProt Q86U44)
Assay: METTL3/14 methyltransferase assay (RapidFire mass spectrometry, RFMS)
Assay type: biochemical
Settings: 5 nM METTL3/14, 0.2 μM RNA substrate, 0.5 μM SAM, 60 minutes at room temperature
Procedure: The enzymatic assay was established to determine IC50 values for inhibition of RNA methyltransferase activity. The enzyme used was full-length his-tagged METTL3 co-expressed with full length FLAG-tagged METTL14 in a baculovirus expression system. Enzymatic reactions were performed at room temperature in 384-well plates using a final reaction volume of 20 μL containing 20 mM TrisCl pH 7.6, 1 mM DTT, 0.01% Tween-20. 5 nM final concentration of METTL3/14 was pre-incubated with various compound concentrations for 10 minutes, followed by addition of 0.2 μM final concentration synthetic RNA substrate (5′P-[…]-3′) and 0.5 μM final concentration S-adenosyl-methionine (SAM). The reaction was incubated for a further 60 minutes at room temperature, and then quenched by the addition of 40 μL 7.5% TCA with two internal product standards (D4-SAH and 13C10-SAH). After termination, plates were sealed, centrifuged and stored at 4° C. until analysis.
RNA methyltransferase activity was measured label free using the RapidFire™ mass spectrometry (RF/MS) platform. Stopped and stable assay plates were analyzed on the Agilent RF300 integrated autosampler/solid-phase extraction (SPE) system coupled to an ABSciex 4000 mass spectrometer for the generation of the product S-adenosyl homocysteine (SAH) and normalized to the ratio of signal of the two internal product standards, respectively. Solvent A was water containing 0.1% (v/v) TCA. Solvent B was acetonitrile/0.1% ammonium acetate (8:2, v/v). More specifically, plates were centrifuged at 4350 rpm for 10 min, samples were aspirated under vacuum for 600 ms, then loaded onto a C18 solid-phase extraction cartridge and washed for 3 s with solvent A at a flow rate of 1.5 mL/min. Retained product and internal standards were eluted with solvent B at a flow rate of 1 mL/min for 3 s and finally the cartridge was re-equilibrated with solvent A for 500 ms. The mass transition for the product (SAH) was 384.9/135.9 Da. Transitions of the two internal product standards (IS1: D4-SAH and IS2: 13C10-SAH) were 389.1/135.8 Da and 395.0/134.2 Da, respectively. Ratios of SAH/IS1 and SAH/IS2 were used for normalization of matrix effects. IC50 values were calculated based on dilution series of individual compounds. Potency of a compound was measured at varied inhibitor concentrations and normalized to control wells without RNA substrate and without inhibition (DMSO only).

Sequence of METTL3/14 (Q86U44 whole entry): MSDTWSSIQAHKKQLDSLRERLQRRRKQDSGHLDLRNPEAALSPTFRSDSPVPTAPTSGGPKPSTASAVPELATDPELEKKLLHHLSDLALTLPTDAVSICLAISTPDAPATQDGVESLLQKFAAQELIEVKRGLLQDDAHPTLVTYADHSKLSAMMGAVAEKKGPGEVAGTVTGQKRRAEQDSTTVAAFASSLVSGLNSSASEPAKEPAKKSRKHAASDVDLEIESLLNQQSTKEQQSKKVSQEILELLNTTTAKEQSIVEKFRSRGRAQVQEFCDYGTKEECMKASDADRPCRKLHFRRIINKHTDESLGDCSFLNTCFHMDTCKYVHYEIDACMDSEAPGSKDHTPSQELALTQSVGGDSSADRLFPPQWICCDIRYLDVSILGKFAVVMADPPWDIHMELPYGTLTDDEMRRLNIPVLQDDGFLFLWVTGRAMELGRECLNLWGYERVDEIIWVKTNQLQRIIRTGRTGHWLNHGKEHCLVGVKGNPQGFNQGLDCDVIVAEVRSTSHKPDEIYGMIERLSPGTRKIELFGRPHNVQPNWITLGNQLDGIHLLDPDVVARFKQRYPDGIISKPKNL
Sequence of METTL3/14 (Q9HCE5 whole entry partner): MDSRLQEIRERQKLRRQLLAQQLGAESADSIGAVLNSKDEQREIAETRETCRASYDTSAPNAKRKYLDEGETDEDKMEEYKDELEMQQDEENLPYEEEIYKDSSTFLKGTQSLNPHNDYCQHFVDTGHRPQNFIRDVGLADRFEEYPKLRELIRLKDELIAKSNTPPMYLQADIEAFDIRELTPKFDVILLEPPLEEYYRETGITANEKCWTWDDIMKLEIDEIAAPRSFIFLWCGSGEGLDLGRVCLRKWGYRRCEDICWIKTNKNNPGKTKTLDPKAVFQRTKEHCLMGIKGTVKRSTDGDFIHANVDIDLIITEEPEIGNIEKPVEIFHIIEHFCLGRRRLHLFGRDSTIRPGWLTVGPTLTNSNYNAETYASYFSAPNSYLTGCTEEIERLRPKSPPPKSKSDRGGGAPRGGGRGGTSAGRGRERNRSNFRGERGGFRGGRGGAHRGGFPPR

| IC50 | SMILES |
| --- | --- |
| 568 nM | NCC/C=C/[C@H]1O[C@@H](n2cc(Br)c3c(N)ncnc32)[C@H](O)[C@@H]1O [Example 7, (2R,3R,4S,5R)-2-{4-amino-5-bromo-7H-pyrrolo[2,3-d]pyrimidin-7-yl}-5-[(1E)-4-aminobut-1-en-1-yl]oxolane-3,4-diol] |
| 505 nM | NCCC/C=C/[C@H]1O[C@@H](n2cc(Br)c3c(N)ncnc32)[C@H](O)[C@@H]1O [Example 8, (2R,3R,4S,5R)-2-{4-amino-5-bromo-7H-pyrrolo[2,3-d]pyrimidin-7-yl}-5-[(1E)-5-aminopent-1-en-1-yl]oxolane-3,4-diol] |
| 460 nM | Nc1ncnc2c1c(Br)cn2[C@@H]1O[C@H](/C=C/C2CNC2)[C@@H](O)[C@H]1O [Example 13, (2R,3R,4S,5R)-2-{4-amino-5-bromo-7H-pyrrolo[2,3-d]pyrimidin-7-yl}-5-[(1E)-2-(azetidin-3-yl)ethenyl]oxolane-3,4-diol] |
| 413 nM | Nc1ncnc2c1c(Br)cn2[C@@H]1O[C@H](/C=C/C2CCNCC2)[C@@H](O)[C@H]1O [Example 14, (2R,3R,4S,5R)-2-{4-amino-5-bromo-7H-pyrrolo[2,3-d]pyrimidin-7-yl}-5-[(1E)-2-(piperidin-4-yl)ethenyl]oxolane-3,4-diol] |
| 351 nM | Nc1ncnc2c1c(Br)cn2[C@@H]1O[C@H](/C=C/C2CCCNC2)[C@@H](O)[C@H]1O (stereo partly drawn) [Example 15, (2R,3R,4S,5R)-2-{4-amino-5-bromo-7H-pyrrolo[2,3-d]pyrimidin-7-yl}-5-[(1E)-2-(piperidin-3-yl)ethenyl]oxolane-3,4-diol] |
| 453 nM | Nc1ncnc2c1c(Br)cn2[C@@H]1O[C@H](/C=C/C2CCNC2)[C@@H](O)[C@H]1O (stereo partly drawn) [Example 16, (2R,3R,4S,5R)-2-{4-amino-5-bromo-7H-pyrrolo[2,3-d]pyrimidin-7-yl}-5-[(1E)-2-(pyrrolidin-3-yl)ethenyl]oxolane-3,4-diol] |
| 1310 nM | Nc1ncnc2c1c(Br)cn2[C@@H]1O[C@H](/C=C/C2CC(N)C2)[C@@H](O)[C@H]1O (stereo partly drawn) [Example 17, (2R,3R,4S,5R)-2-{4-amino-5-bromo-7H-pyrrolo[2,3-d]pyrimidin-7-yl}-5-[(1E)-2-(3-aminocyclobutyl)ethenyl]oxolane-3,4-diol] |
| 2930 nM | Nc1ncnc2c1c(Br)cn2[C@@H]1O[C@H](/C=C/C2COC2)[C@@H](O)[C@H]1O [Example 18, (2R,3R,4S,5R)-2-{4-amino-5-bromo-7H-pyrrolo[2,3-d]pyrimidin-7-yl}-5-[(1E)-2-(oxetan-3-yl)ethenyl]oxolane-3,4-diol] |
| 522 nM | Nc1ncnc2c1c(Br)cn2[C@@H]1O[C@H](/C=C/CC2CNC2)[C@@H](O)[C@H]1O [Example 19, (2R,3R,4S,5R)-2-{4-amino-5-bromo-7H-pyrrolo[2,3-d]pyrimidin-7-yl}-5-[(1E)-3-(azetidin-3-yl)prop-1-en-1-yl]oxolane-3,4-diol] |
| 1090 nM | Nc1ncnc2c1c(Br)cn2[C@@H]1O[C@H](/C=C/CCCN2CCOCC2)[C@@H](O)[C@H]1O [Example 25, (2R,3R,4S,5R)-2-{4-amino-5-bromo-7H-pyrrolo[2,3-d]pyrimidin-7-yl}-5-[(1E)-5-(morpholin-4-yl)pent-1-en-1-yl]oxolane-3,4-diol] |

Continued, compound first:

| SMILES | IC50 |
| --- | --- |
| Nc1ncnc2c1c(Br)cn2[C@@H]1O[C@H](/C=C/CCCNCc2ccccc2)[C@@H](O)[C@H]1O [Example 1, (2R,3R,4S,5R)-2-(4-amino-5-bromo-7H-pyrrolo[2,3-d]pyrimidin-7-yl)-5-((E)-5-(benzylamino)pent-1-en-1-yl)tetrahydrofuran-3,4-diol] | 44.8 nM |
| Nc1ncnc2c1c(Br)cn2[C@@H]1O[C@H](/C=C/CCNCc2ccccc2)[C@@H](O)[C@H]1O [Example 3, (2R,3R,4S,5R)-2-{4-amino-5-bromo-7H-pyrrolo[2,3-d]pyrimidin-7-yl}-5-[(1E)-4-(benzylamino)but-1-en-1-yl]oxolane-3,4-diol] | 317 nM |
| Nc1ncnc2c1c(Br)cn2[C@@H]1O[C@H](/C=C/CCCN2CCC(F)(F)CC2)[C@@H](O)[C@H]1O [Example 23, (2R,3R,4S,5R)-2-{4-amino-5-bromo-7H-pyrrolo[2,3-d]pyrimidin-7-yl}-5-[(1E)-5-(4,4-difluoropiperidin-1-yl)pent-1-en-1-yl]oxolane-3,4-diol] | 63.5 nM |
| Nc1ncnc2c1c(Br)cn2[C@@H]1O[C@H](/C=C/CCCN2CCC(F)CC2)[C@@H](O)[C@H]1O [Example 24, (2R,3R,4S,5R)-2-{4-amino-5-bromo-7H-pyrrolo[2,3-d]pyrimidin-7-yl}-5-[(1E)-5-(4-fluoropiperidin-1-yl)pent-1-en-1-yl]oxolane-3,4-diol] | 231 nM |
| Nc1ncnc2c1c(Br)cn2[C@@H]1O[C@H](/C=C/CCCN2CCCC(F)C2)[C@@H](O)[C@H]1O (stereo partly drawn) [Example 26, (2R,3R,4S,5R)-2-{4-amino-5-bromo-7H-pyrrolo[2,3-d]pyrimidin-7-yl}-5-[(1E)-5-(3-fluoropiperidin-1-yl)pent-1-en-1-yl]oxolane-3,4-diol] | 351 nM |
| Nc1ncnc2c1c(Br)cn2[C@@H]1O[C@H](/C=C/CCCNCC23CC(F)(C2)C3)C[C@H]1O [Example 27, (2R,3R,5S)-2-{4-amino-5-bromo-7H-pyrrolo[2,3-d]pyrimidin-7-yl}-5-[(1E)-5-[({3-fluorobicyclo[1.1.1]pentan-1-yl}methyl)amino]pent-1-en-1-yl]oxolan-3-ol] | 9.6 nM |
| Nc1ncnc2c1c(Br)cn2[C@@H]1O[C@H](/C=C/CCCNCC23CC(F)(C2)C3)[C@H](F)[C@H]1O [Example 28, (2R,3S,4R,5R)-2-{4-amino-5-bromo-7H-pyrrolo[2,3-d]pyrimidin-7-yl}-4-fluoro-5-[(1E)-5-[({3-fluorobicyclo[1.1.1]pentan-1-yl}methyl)amino]pent-1-en-1-yl]oxolan-3-ol] | 19.7 nM |
| Nc1ncnc2c1c(Br)cn2[C@@H]1C[C@H](c2cccc(C(=O)NCC34CC(F)(C3)C4)c2)[C@@H](O)[C@H]1O [Example 40, 3-[(1R,2R,3S,4R)-4-{4-amino-5-bromo-7H-pyrrolo[2,3-d]pyrimidin-7-yl}-2,3-dihydroxycyclopentyl]-N-({3-fluorobicyclo[1.1.1]pentan-1-yl}methyl)benzamide] | 7930 nM |
| Nc1ncnc2c1c(Br)cn2[C@@H]1O[C@H](/C=C/CCCNCC23CC(F)(C2)C3)[C@@H](O)[C@H]1F [Example 41, (2R,3R,4R,5R)-5-{4-amino-5-bromo-7H-pyrrolo[2,3-d]pyrimidin-7-yl}-4-fluoro-2-[(1E)-5-[({3-fluorobicyclo[1.1.1]pentan-1-yl}methyl)amino]pent-1-en-1-yl]oxolan-3-ol] | 60 nM |
